Data from patent US11180455B2, “Compounds for the treatment of pain” (priority 2018, dated 2021).
pEC50: −log10 of the molar value. Where two headings read alike, the source gives them in different places.

Legend:
human μ opioid receptor = human μ opioid receptor (Homo sapiens (Human), UniProt P35372); test: Alternate functional activity ([35S]GTPγS binding, SPA) assay; format: biochemical; conditions: alternate [35S]GTPγS binding assay (SPA beads), CHO cell membranes expressing human μ opioid receptor
Procedure: The [^35S]GTPγS assay measures the functional properties of a compound by quantifying the level of G-protein activation following agonist binding in studies using stably transfected cells, and is considered to be a measure of the efficacy of a compound. Membranes from CHO (Chinese Hamster Ovary) cells that stably expressed one type of the cloned human opioid receptor human were used in the experiments. The assay buffer consisted of 50 mM Tris-HCl, pH 7.4, 3 mM MgCl2, 0.2 mM EGTA, 5 μM GDP, and 100 mM NaCl. CHO cell membranes stably expressing the human p opioid receptor were pre-incubated with scintillation proximity assay beads from PerkinElmer® (WGA PVT SPA) for 30 minutes, at 8 µg membrane and 350 µg beads in a volume of 0.1 mL per reaction. In a final volume of 0.2 mL, 11 different concentrations of each test compound were incubated with the membrane-SPA bead mixture and a final concentration of 0.020 nM [35S]GTPγS for 1.5 hours with gentle shaking. Reactions were then incubated for 5 hours. Data are the mean EC50 values±S.E.M. EC50 values (nM) for compounds 12, 16, 19, 20, 149, 151, 152, 157, 160, 161, 164-169, 172, 173, 180-197, and 199-207 are shown in Table 1.

Male Sprague-Dawley rats [1] = conditions: maximum pCO2 within 2 hours of administration, rat, subcutaneous
Male Sprague-Dawley rats [2] = format: in vivo; conditions: rat

CCOC1(c2cc(C(N)=O)ccc2F)C2CCCC1CN(C)C2 (stereo not drawn) [Compound 194]
pEC50 (human μ opioid receptor): 7.12 to 8.00

COC1(c2cccc(C(N)=O)c2)C2CCCC1CN(C1CC3(COC3)C1)C2.O=C(O)C[C@H](O)C(=O)O [Compound 133, 3-((1R,5S,9r)-9-methoxy-3-(2-oxaspiro[3.3]heptan-6-yl)-3-azabicyclo[3.3.1]nonan-9-yl)benzamide (S)-2-hydroxysuccinate]
<60 mmHg @ 10X CFA MEMD (Male Sprague-Dawley rats [1]): + (resulted in a maximum pCO2 value of less than 60 mmHg within 2 hours of administration)

CO[C@@]1(c2ccnc(C(N)=O)c2)[C@@H]2CCC[C@H]1CN(Cc1ncc(C)[nH]1)C2.Cl [Compound 153, 4-((1R,5S,9r)-9-methoxy-3-((5-methyl-1H-imidazol-2-yl)methyl)-3-azabicyclo[3.3.1]nonan-9-yl)picolinamide Hydrochloride]
MEMO SC CFA (Male Sprague-Dawley rats [2]; minimum dose at which maximal reversal (MEMD) of weight bearing was achieved, subcutaneous administration): 1 mg/kg

CO[C@@]12CC[C@@]3(C[C@@H]1[C@](C)(O)C(C)(C)C)[C@H]1Cc4ccc(O)c5c4[C@@]3(CCN1CC1CC1)[C@H]2O5 [Buprenorphine, buprenorphine, reference compound]
MEMO SC CFA (Male Sprague-Dawley rats [2]; in vivo): 0.1 mg/kg

CCOC1(c2cccc(C(N)=O)c2)C2CCCC1CNC2 [Compound 160, 3-((1R,5S,9r)-9-ethoxy-3-azabicyclo[3.3.1]nonan-9-yl)benzamide]
<60 mmHg @ 10X CFA MEMD (Male Sprague-Dawley rats [1]): + (resulted in a maximum pCO2 value of less than 60 mmHg within 2 hours of administration) | <60 mmHg @ 100X CFA MEMD (Male Sprague-Dawley rats [1]; 100X CFA MEMD dose): + (resulted in a maximum pCO2 value of less than 60 mmHg within 2 hours of administration)
